Laboratory results reported in patent US4243408A, “Herbicidal N-triazolylmethyl-substituted alpha-haloacetanilide” (Chevron Research Company, priority 1978, dated 1981).

Experiments:
Format in all cases: in vivo
[1] = system: Crabgrass (Digitaria sanguinalis); assay: Pre-Emergent Test, herbicidal effectiveness; conditions: pre-emergence, 504 h, 33 micrograms per cm^2, 3 weeks, 0-to-100 scale, read-out: Herbicidal Effectiveness, % Control Pre, C
Method: (§1) An acetone solution of the test compound was prepared by mixing 750 mg of the compound, 220 mg of a nonionic surfactant and 25 ml of acetone. This solution was added to approximately 125 ml of water containing 156 mg of surfactant.
(§2) Seeds of the test vegetation were planted in a pot of soil and the test solution was sprayed uniformly onto the soil surface at a dose of 33 micrograms/cm^2. The pot was watered and placed in a greenhouse. […] At the end of this period, the herbicidal effectiveness of the compound was rated based on the physiological observations. A 0-to-100 scale was used, 0 representing no phytotoxicity, 100 representing complete kill.

[2] = system: Mustard (Brassica arvensis); assay: Pre-Emergent Test, herbicidal effectiveness; conditions: pre-emergence, 504 h, 33 micrograms per cm^2, 3 weeks, 0-to-100 scale
Method: as §1, §2

[3] = system: Pigweed (Amaranthus retroflexus); assay: Pre-Emergent Test, herbicidal effectiveness; conditions: pre-emergence, 504 h, 33 micrograms per cm^2, 3 weeks, 0-to-100 scale, read-out: Herbicidal Effectiveness, % Control Pre, P
Method: as §1, §2

[4] = system: Lambsquarter (Chenopodium album); assay: Pre-Emergent Test, herbicidal effectiveness; conditions: pre-emergence, 504 h, 33 micrograms per cm^2, 3 weeks, 0-to-100 scale, read-out: Herbicidal Effectiveness, % Control Pre, L
Method: as §1, §2

Watergrass (Echinochloa) [5] = assay: Pre-Emergent Test, herbicidal effectiveness; conditions: pre-emergence, 504 h, 33 micrograms per cm^2, 3 weeks, 0-to-100 scale, read-out: Herbicidal Effectiveness, % Control Pre, W
Method: as §1, §2

Wild Oats (Avena fatua) [6] = assay: Pre-Emergent Test, herbicidal effectiveness; conditions: pre-emergence, 504 h, 33 micrograms per cm^2, 3 weeks, 0-to-100 scale, read-out: Herbicidal Effectiveness, % Control Pre, O
Method: as §1, §2

[7] = system: Crabgrass (Digitaria sanguinalis); assay: Post-Emergent Test, herbicidal effectiveness; conditions: post-emergence, 504 h, 33 micrograms per cm^2, 3 weeks, 0-to-100 scale, read-out: Herbicidal Effectiveness, % Control Post, C
[8] = system: Mustard (Brassica arvensis); assay: Post-Emergent Test, herbicidal effectiveness; conditions: post-emergence, 504 h, 33 micrograms per cm^2, 3 weeks, 0-to-100 scale
[9] = system: Pigweed (Amaranthus retroflexus); assay: Post-Emergent Test, herbicidal effectiveness; conditions: post-emergence, 504 h, 33 micrograms per cm^2, 3 weeks, 0-to-100 scale, read-out: Herbicidal Effectiveness, % Control Post, P
[10] = system: Lambsquarter (Chenopodium album); assay: Post-Emergent Test, herbicidal effectiveness; conditions: post-emergence, 504 h, 33 micrograms per cm^2, 3 weeks, 0-to-100 scale, read-out: Herbicidal Effectiveness, % Control Post, L
Watergrass (Echinochloa) [11] = assay: Post-Emergent Test, herbicidal effectiveness; conditions: post-emergence, 504 h, 33 micrograms per cm^2, 3 weeks, 0-to-100 scale, read-out: Herbicidal Effectiveness, % Control Post, W
Wild Oats (Avena fatua) [12] = assay: Post-Emergent Test, herbicidal effectiveness; conditions: post-emergence, 504 h, 33 micrograms per cm^2, 3 weeks, 0-to-100 scale, read-out: Herbicidal Effectiveness, % Control Post, O

| Structure (SMILES) | pest or weed control at 33 µg/cm2 [1] [%] | pest or weed control at 33 µg/cm2 [2] [%] | pest or weed control at 33 µg/cm2 [3] [%] | pest or weed control at 33 µg/cm2 [4] [%] | pest or weed control at 33 µg/cm2 (Watergrass (Echinochloa) [5]) [%] | pest or weed control at 33 µg/cm2 (Wild Oats (Avena fatua) [6]) [%] | pest or weed control at 5000 µg/mL, 33 µg/cm2 [7] [%] | pest or weed control at 5000 µg/mL, 33 µg/cm2 [8] [%] | pest or weed control at 5000 µg/mL, 33 µg/cm2 [9] [%] | pest or weed control at 5000 µg/mL, 33 µg/cm2 [10] [%] | pest or weed control at 5000 µg/mL, 33 µg/cm2 (Watergrass (Echinochloa) [11]) [%] | pest or weed control at 5000 µg/mL, 33 µg/cm2 (Wild Oats (Avena fatua) [12]) [%] |
| --- | --- | --- | --- | --- | --- | --- | --- | --- | --- | --- | --- | --- |
| CCc1cccc(C)c1N(Cc1nnc(SC)n1C)C(=O)CCl [Compound 21B] | 0 | 0 | 0 | 0 | 98 | 0 | 0 | 0 | 0 | 0 | 0 | 0 |
| Cc1nnc(CNc2ccccc2C)[nH]1 [Compound 25A] | 0 | 0 | 0 | 0 | 0 | 0 | 0 | 0 | 0 | 0 | 0 | 0 |
| CCc1cccc(CC)c1NCc1nnc(SC)n1C [Compound 23A] | 0 | 0 | 0 | 0 | 0 | 0 | 0 | 0 | 0 | 0 | 0 | 0 |
| Cc1cccc(C)c1NC(C)c1nnc[nH]1 (stereo not drawn) [Compound 12A] | 0 | 0 | 0 | 0 | 0 | 0 | 0 | 0 | 0 | 0 | 0 | 0 |
| CCc1nnc(CN(C(=O)CCl)c2c(C)cccc2CC)[nH]1 [Compound 15B] | 100 | 100 | 100 | 100 | 100 | 100 | 75 | 35 | 30 | 35 | 80 | 55 |
| Cc1cccc(C)c1NCc1nnc(S)n1C [Compound 3, 3-(2,6-dimethylphenylaminomethyl)-4-methyl-5-mercapto-1,2,4-triazole] | 0 | 0 | 0 | 0 | 0 | 0 | 0 | 0 | 0 | 0 | 0 | 0 |
| CCc1cccc(CC)c1NCc1nnc(C)[nH]1 [Compound 5A] | 0 | 0 | 0 | 0 | 0 | 0 | 0 | 0 | 0 | 0 | 0 | 0 |
